Among the data in patent publication US20100204224A1, “AZACYCLIC COMPOUNDS AS INHIBITORS OF SENSORY NEURONE SPECIFIC SODIUM CHANNELS” (priority 2005, published 2010) are IC50 values, retold here.

pIC50: −log10 of the molar value. Read-outs that look alike come from different tables or passages of the source.

The test addresses T1, human Nav1.8 (hNav1.8) ion channel (Homo sapiens, UniProt Q9Y5Y9).
T1 construct: expressed in transfected cells
In words: Inhibition of human Nav1.8 stably expressed in SH-SY-5Y cells (membrane potential dye fluorescence assay). It is filed as cell-based. Conditions: FLIPR membrane potential dye, 10 μM pyrethroid, 250 nM TTX, test concentration range 100 μM-0.05 μM.

The mark [1] stands for this setting: hNav1.8 IC50, SH-SY-5Y hNav1.8 cells.
[2] abbreviates: SH-SY-5Y hNav1.8 cells, read-out: hNav1.8 IC50.

T1 sequence (Q9Y5Y9 whole entry): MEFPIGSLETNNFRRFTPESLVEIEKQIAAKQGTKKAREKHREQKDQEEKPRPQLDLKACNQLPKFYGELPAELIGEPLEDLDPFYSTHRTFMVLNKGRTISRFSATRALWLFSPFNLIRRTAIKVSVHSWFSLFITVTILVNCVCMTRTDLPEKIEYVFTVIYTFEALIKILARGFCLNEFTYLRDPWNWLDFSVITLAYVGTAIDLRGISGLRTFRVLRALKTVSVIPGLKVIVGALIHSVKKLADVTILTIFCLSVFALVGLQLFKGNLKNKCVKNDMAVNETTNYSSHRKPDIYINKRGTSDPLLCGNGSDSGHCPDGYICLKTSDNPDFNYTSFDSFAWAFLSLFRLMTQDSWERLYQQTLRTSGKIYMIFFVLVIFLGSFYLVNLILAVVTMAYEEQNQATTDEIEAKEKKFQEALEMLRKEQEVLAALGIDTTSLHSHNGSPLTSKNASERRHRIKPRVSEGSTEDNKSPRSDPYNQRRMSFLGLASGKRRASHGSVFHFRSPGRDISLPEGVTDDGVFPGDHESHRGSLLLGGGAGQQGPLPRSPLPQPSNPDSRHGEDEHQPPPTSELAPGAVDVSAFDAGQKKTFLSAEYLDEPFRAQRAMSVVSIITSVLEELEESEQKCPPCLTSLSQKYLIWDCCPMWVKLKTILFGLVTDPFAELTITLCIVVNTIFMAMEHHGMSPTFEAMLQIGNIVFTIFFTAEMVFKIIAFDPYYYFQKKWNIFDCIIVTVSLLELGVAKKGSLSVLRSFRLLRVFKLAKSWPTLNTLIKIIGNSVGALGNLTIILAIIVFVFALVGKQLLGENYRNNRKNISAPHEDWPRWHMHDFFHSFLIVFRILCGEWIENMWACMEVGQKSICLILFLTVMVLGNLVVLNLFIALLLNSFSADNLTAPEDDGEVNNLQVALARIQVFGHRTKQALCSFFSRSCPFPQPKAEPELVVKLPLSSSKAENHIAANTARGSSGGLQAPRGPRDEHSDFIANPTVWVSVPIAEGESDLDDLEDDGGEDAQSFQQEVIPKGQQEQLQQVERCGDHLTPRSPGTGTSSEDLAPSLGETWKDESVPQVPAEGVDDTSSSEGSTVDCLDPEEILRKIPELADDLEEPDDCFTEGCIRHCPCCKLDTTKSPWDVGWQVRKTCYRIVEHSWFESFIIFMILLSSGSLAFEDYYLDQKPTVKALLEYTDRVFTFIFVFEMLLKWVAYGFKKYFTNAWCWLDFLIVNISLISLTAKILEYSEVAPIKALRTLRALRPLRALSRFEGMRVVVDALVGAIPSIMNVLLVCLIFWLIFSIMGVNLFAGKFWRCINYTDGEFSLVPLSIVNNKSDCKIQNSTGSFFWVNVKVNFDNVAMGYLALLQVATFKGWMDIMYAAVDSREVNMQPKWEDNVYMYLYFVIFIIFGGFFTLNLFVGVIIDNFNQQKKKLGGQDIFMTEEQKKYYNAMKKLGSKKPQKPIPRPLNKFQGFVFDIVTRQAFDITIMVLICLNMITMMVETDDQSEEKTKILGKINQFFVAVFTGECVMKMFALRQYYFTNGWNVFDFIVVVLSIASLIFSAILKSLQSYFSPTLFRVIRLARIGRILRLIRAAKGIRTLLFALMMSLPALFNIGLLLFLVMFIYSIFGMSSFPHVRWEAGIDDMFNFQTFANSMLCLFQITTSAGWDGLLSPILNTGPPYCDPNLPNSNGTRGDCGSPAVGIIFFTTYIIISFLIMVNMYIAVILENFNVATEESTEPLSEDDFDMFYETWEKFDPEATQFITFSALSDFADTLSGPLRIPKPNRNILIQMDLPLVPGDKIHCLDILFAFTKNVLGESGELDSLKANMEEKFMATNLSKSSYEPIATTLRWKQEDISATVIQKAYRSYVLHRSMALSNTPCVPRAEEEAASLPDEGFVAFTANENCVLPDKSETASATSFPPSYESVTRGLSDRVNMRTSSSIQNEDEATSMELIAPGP

On to `CC(c1ccccc1Br)N1CC2CC1CN2C(=O)Cc1ccc(Oc2ccc(F)cc2)cc1` (stereo not shown) [Example 153, 1-{5-[1-(2-Bromo-phenyl)-ethyl]-2,5-diaza-bicyclo[2.2.1]hept-2-yl}-2-[4-(4-fluoro-phenoxy)-phenyl]-ethanone], for which the pIC50 – broadly, −log10 of the IC50, conventionally taken in molar units – under setting [1] was 5.48. The compound `CC(c1c(F)cccc1Cl)N1CC2CC1CN2C(=O)Cc1ccc(Oc2ccc(F)cc2)cc1` (single isomer, unassigned) [Example 165, 1-{5-[1-(2-Chloro-6-fluoro-phenyl)-ethyl]-2,5-diaza-bicyclo[2.2.1]hept-2-yl}-2-[4-(4-fluoro-phenoxy)-phenyl]-ethanone] showed a pIC50 under setting [1] of 5.91. Regarding `O=C(Nc1ccc(C(F)(F)F)cc1)N1CC2CC1CN2C1CCc2cc(F)ccc21` (stereo not shown) [Example 95, 5-(5-Fluoro-indan-1-yl)-2,5-diaza-bicyclo[2.2.1]heptane-2-carboxylic acid (4-trifluoromethyl-phenyl)-amide], the pIC50 under setting [2] is 5.97. Consider `O=C(Nc1ccc(Oc2ccc(F)cc2)cc1)N1CC2CC1CN2C1CCc2cc(F)ccc21` (stereo not shown) [Example 93, 5-(5-Fluoro-indan-1-yl)-2,5-diaza-bicyclo[2.2.1]heptane-2-carboxylic acid [4-(4-fluoro-phenoxy)-phenyl]-amide], for which the negative-log IC50 (pIC50) under setting [2] was 6.51.
